Results published in PubChem BioAssay (NCI).
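Values below derive from 48-hour exposures of cells grown in 96-well plates, with endpoints linearly interpolated between the two concentrations bracketing the appropriate inhibition level. TGI: concentration producing complete growth inhibition.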

Key:
Experiment in all cases: inhibition of tumour cell growth, NCI panel, 48 h
LOX IMVI melanoma = test system: LOX IMVI melanoma
M14 melanoma = test system: M14 melanoma
A549 NSCLC = test system: A549 NSCLC
NCI-H460 lung = test system: NCI-H460 lung
RPMI-8226 leukemia = test system: RPMI-8226 leukemia
KM12 colon = test system: KM12 colon
U251 CNS = test system: U251 CNS
UACC-257 melanoma = test system: UACC-257 melanoma
MDA-MB-435 = test system: MDA-MB-435
PC-3 prostate = test system: PC-3 prostate

Row | Structure (SMILES) | TGI (LOX IMVI melanoma) [µM] | TGI (M14 melanoma) [µM] | TGI (A549 NSCLC) [µM] | TGI (NCI-H460 lung) [µM] | TGI (RPMI-8226 leukemia) [µM] | TGI (KM12 colon) [µM] | TGI (U251 CNS) [µM] | TGI (UACC-257 melanoma) [µM] | TGI (MDA-MB-435) [µM] | TGI (PC-3 prostate) [µM]
1 | COc1cc(C2c3cc(OC)c(OC)c(O)c3C(=O)C3CCC(=O)N32)cc(OC)c1OC (stereo not given) | > 100 | > 100 | > 100 | > 100 | > 100 | > 100 | > 100 | > 100 | 39.5 | > 100
2 | CC1C(C#N)(C#N)C(C#N)=C(N)C1(C)[N+](=O)[O-] (stereo not given) | > 100 | > 100 | > 100 | > 100 | > 100 | > 100 | > 100 | > 100 | > 100 | > 100
3 | COc1cc([C@@H]2c3cc4c(cc3[C@@H](c3c(O)cc(O)c5c3O[C@H](c3ccc(O)c(O)c3)[C@H](OC(=O)c3cc(O)c(O)c(O)c3)C5)[C@H]3COC(=O)[C@H]23)OCO4)cc(OC)c1O | > 100 | 64.2 | 99.2 | > 100 | > 100 | > 100 | > 100 | > 100 | 57.3 | > 100
4 | COc1ccc(N2N=NN(C(C)C)/C2=C(/Cl)c2nnnn2-c2ccc(OC)cc2)cc1 | 6.82 | 21.9 | 33.6 | 36.6 | > 61.2 | 31.3 | 33.7 | 28.9 | 25.5 | 28.3
5 | CCN(CC)c1ccc2cc(C(N)=O)c(=Nc3ccc(F)cc3)oc2c1 | > 100 | > 100 | > 100 | > 100 | > 100 | > 100 | > 100 | > 100 | > 100 | > 100
6 | CCOC1NC(/N=C/c2ccc(OC)cc2)=C(C#N)C1C#N (stereo not given) | > 100 | > 100 | > 100 | > 100 | > 100 | > 100 | > 100 | > 100 | > 100 | > 100
7 | O=C(/C=C/c1ccccc1)Oc1cccc(Br)c1 | > 100 | > 100 | > 100 | > 100 | 40.2 | > 100 | > 100 | > 100 | > 100 | > 100
8 | OC(C1CCCCCCCCCC1)C(O)C1CCCCCCCCCC1 (stereo not given) | > 100 | > 100 | > 100 | > 100 | > 100 | > 100 | > 100 | > 100 | > 100 | > 100
9 | O=C1CCCCN1C(=O)c1ccc([N+](=O)[O-])cc1 | > 100 | > 100 | > 100 | > 100 | > 100 | > 100 | > 100 | > 100 | > 100 | > 100
